Converted amounts (≈) assume the structure as drawn.
Experiments:
[1] = system: Enterococcus faecalis ATCC 51299; test: Micro-dilution broth MIC, Enterococcus faecalis; assay type: cell-based; conditions: ATCC51299, 24 h, 37 °C, read-out: Minimum Inhibitory Concentrations MIC
Protocol: (§1) The standard strains, Gram-positive: Staphylococcus aureus ATCC […], Enterococcus faecalis Van B ATCC 51299 and Enterococcus faecium VA sensitive ATCC 35667, and Gram-negative: Escherichia coli ATCC 25922, Klebsiella pneumoniae ATCC 700603 and Acinetobacter baumannii ATCC 19606, came from a collection of the Environmental Biology Department, Medical University of Łódź. The standard strains were cultivated in Columbia Agar Medium and incubated at 37 °C for 24 h in aerobic conditions.
(§2) The antibacterial activity of the racemates and E/Z-mixtures was investigated using the micro‑dilution broth method. The compounds were diluted in ethanol. This stock solution was mixed with 100 µL of Mueller-Hinton broth to obtain concentrations from 10 µg/mL to 80 µg/mL. The mixtures were then transferred to 96-well microtiter plates. The microbial suspension was standardised to a cell density of 1.5 × 10^8 CFU, which was equal to an optical density of 0.5 on the Mc Farland scale by a bio-Merieux densitometer; one well was filled with broth only to act as a control for strain growth.

[2] = system: Acinetobacter baumannii ATCC 19606; test: Micro-dilution broth MIC, Acinetobacter baumannii; assay type: cell-based; conditions: ATCC19606, 24 h, 37 °C, read-out: Minimum Inhibitory Concentrations MIC
Protocol: as §1, §2

[3] = system: Keratinocytes HaCaT; test: MTT viability, HaCaT; assay type: cell-based, human; conditions: Homo sapiens, 24 h, range 10–1000 µM, read-out: half maximal inhibitory concentration (IC50), interpolated
Protocol: (§3) Cell lines and in vitro culture conditions: The human promyelocytic leukaemia cell line HL-60 was obtained from the Centre of Molecular and Macromolecular Biology in Łódź, Poland and was cultured in RPMI 1640 medium with 20% heat-inactivated fetal bovine serum (FBS). To reduce spontaneous differentiation, the cells were never allowed to exceed a concentration of 1.0 × 10^6 cells/mL. The human keratinocyte cell line HaCaT was obtained from Cell Lines Service, Germany (CLS) and cultured in DMEM medium with 10% FBS. Human colorectal adenocarcinoma HT29 and normal epithelial IEC-6 cell lines (from ATCC) were cultured in DMEM medium with 10% FBS. The human skin melanoma cell line MEWO (from CLS) was cultured in DMEM:F12 supplemented with 2 mM L-glutamine and 10% FBS. Human fibroblasts from gingiva isolated from original tissue, HFIB-G, (from Provitro) were cultured in Quantum 333 (from Immunique). The media were supplemented with 100 U/mL penicillin and 100 µg/mL streptomycin; all media components were obtained from Life Technologies. The adherent cell lines used in the studies were seeded on microplates before they exceeded 80% of confluence. Cells were cultured at 37 °C in 5% CO2 air atmosphere/95% air atmosphere.
(§4) Cytotoxic activity: The cells (the density for HL-60 was 0.5 × 10^4 cells/100 µL, otherwise it was 1 × 10^4 cells/100 µL) were plated into each well of 96-well microtiter plates and, after their attachment to the plate surface, treated with 10 µL of the indicated concentrations of compounds for 24 h. Viability was determined by MTT assay following the treatment. MTT (3-[4.5-dimethylthiazol-2-yl]-2.5-diphenyltetrazolium bromide; Sigma, St. Louis, MO, USA) solution was added to each well and incubated for another 4 h. The resulting MTT-formazan product was dissolved by the addition of lysis buffer (20% SDS and 50% DMF). The amount of formazan was determined by measuring absorbance at 570 nm with a Synergy 2 microplate reader (BioTek, Winooski, VT, USA) operated by the Gen5 program. The experiments were conducted three times with five replications. The results are expressed as an optical density ratio of the treatment to control. All data are presented as means ± SD.

[4] = system: Malignant Melanoma MEWO; test: MTT viability, MEWO; assay type: cell-based, human; conditions: Homo sapiens, 24 h, range 10–1000 µM, read-out: half maximal inhibitory concentration (IC50), interpolated
Protocol: as §3, §4

[5] = system: Enterococcus faecium ATCC 35667; test: Micro-dilution broth MIC, Enterococcus faecium; assay type: cell-based; conditions: ATCC35667, 24 h, 37 °C, read-out: Minimum Inhibitory Concentrations MIC
Protocol: as §1, §2

[6] = system: Fibroblasts HFIG; test: MTT viability, HFIG; assay type: cell-based, human; conditions: Homo sapiens, Fibroblast, 24 h, range 10–1000 µM, read-out: half maximal inhibitory concentration (IC50), interpolated
Protocol: as §3, §4

[7] = system: Klebsiella pneumoniae ATCC 700603; test: Micro-dilution broth MIC, Klebsiella pneumoniae; assay type: cell-based; conditions: ATCC700603, 24 h, 37 °C, read-out: Minimum Inhibitory Concentrations MIC
Protocol: as §1, §2

[8] = MTT viability, HT29; assay type: cell-based, human; conditions: human, HT29 colorectal adenocarcinoma cells, 1000 µM (IC50 exceeded 1000 µM), read-out: viability ± standard deviation at 1000 µM
Protocol: as §3, §4

[9] = system: Promyelocytic Leukaemia HL-60; test: MTT viability, HL-60; assay type: cell-based, human; conditions: Homo sapiens, HL-60, 24 h, HL-60, MTT, range 10–1000 µM, read-out: half maximal inhibitory concentration (IC50), interpolated
Protocol: as §3, §4

[10] = system: Escherichia coli ATCC 25922; test: Micro-dilution broth MIC, Escherichia coli; assay type: cell-based; conditions: ATCC25922, 24 h, 37 °C, read-out: Minimum Inhibitory Concentrations MIC
Protocol: as §1, §2

[11] = system: Staphylococcus aureus ATCC 43300; test: Micro-dilution broth MIC, Staphylococcus aureus; assay type: cell-based; conditions: ATCC43300, 24 h, 37 °C, read-out: Minimum Inhibitory Concentrations MIC
Protocol: as §1, §2

[12] = MTT viability, IEC6; assay type: cell-based; conditions: rat, IEC-6 small intestine epithelial cells, 1000 µM (IC50 exceeded 1000 µM), read-out: viability ± standard deviation at 1000 µM
Protocol: as §3, §4

CC(C)=CCCC(C)/C=C/CCC(C)=CC=O (stereo not drawn) [Compound 19, (6E)-3,8,12-Trimethyltrideca-2,6,11-trienal]
MIC [1]: 34 µg/mL (≈ 145 µM)
MIC [2]: 42 µg/mL (≈ 179 µM)
IC50 [3]: 650 µM
IC50 [4]: 600 µM
MIC [5]: 38 µg/mL (≈ 162 µM)
IC50 [6]: 750 µM
MIC [7]: 36 µg/mL (≈ 154 µM)
viability at 24 h, 1000 µM [8]: 96%
IC50 [9]: 550 µM
MIC [10]: 44 µg/mL (≈ 188 µM)
MIC [11]: 28 µg/mL (≈ 119 µM)
viability at 24 h, 1000 µM [12]: 94%

CC(C)=CCCC(C)CC(C)C(C)=CC=O (stereo not drawn) [Compound 23, 3,4,6,10-Tetramethylundeca-2,9-dienal]
MIC [1]: 26 µg/mL (≈ 117 µM)
MIC [2]: 36 µg/mL (≈ 162 µM)
IC50 [3]: 900 µM
IC50 [4]: 730 µM
MIC [5]: 36 µg/mL (≈ 162 µM)
IC50 [6]: 800 µM
MIC [7]: 34 µg/mL (≈ 153 µM)
viability at 24 h, 1000 µM [8]: 87%
IC50 [9]: 630 µM
MIC [10]: 46 µg/mL (≈ 207 µM)
MIC [11]: 28 µg/mL (≈ 126 µM)
viability at 24 h, 1000 µM [12]: 82%

CC(C)=CCCC(C)C(C)=CCCC(C)=CC=O (stereo not drawn) [Compound 18, 3,7,8,12-Tetramethyltrideca-2,6,11-trienal]
MIC [1]: 22 µg/mL (≈ 88.6 µM)
MIC [2]: 46 µg/mL (≈ 185 µM)
IC50 [3]: 800 µM
IC50 [4]: 630 µM
MIC [5]: 28 µg/mL (≈ 113 µM)
IC50 [6]: 690 µM
MIC [7]: 46 µg/mL (≈ 185 µM)
viability at 24 h, 1000 µM [8]: 98%
IC50 [9]: 502 µM
MIC [10]: 52 µg/mL (≈ 209 µM)
MIC [11]: 18 µg/mL (≈ 72.5 µM)
viability at 24 h, 1000 µM [12]: 79%

CC(C)=CCCC(C)CC(C)=CC=O (stereo not drawn) [Compound 21, 3,5,9-Trimethyldeca-2,8-dienal]
MIC [1]: 38 µg/mL (≈ 196 µM)
MIC [2]: 52 µg/mL (≈ 268 µM)
IC50 [3]: 830 µM
IC50 [4]: 640 µM
MIC [5]: 42 µg/mL (≈ 216 µM)
IC50 [6]: 830 µM
MIC [7]: 48 µg/mL (≈ 247 µM)
viability at 24 h, 1000 µM [8]: 98%
IC50 [9]: 600 µM
MIC [10]: 54 µg/mL (≈ 278 µM)
MIC [11]: 32 µg/mL (≈ 165 µM)
viability at 24 h, 1000 µM [12]: 91%

CC(C)=CCCC(C)=CCCC(C)=CC=O [Farnesal (3), farnesal, reference compound]
MIC [1]: 22 µg/mL (≈ 99.8 µM)
MIC [2]: 36 µg/mL (≈ 163 µM)
IC50 [3]: 702 µM
IC50 [4]: 467 µM
MIC [5]: 36 µg/mL (≈ 163 µM)
IC50 [6]: 650 µM
MIC [7]: 44 µg/mL (≈ 200 µM)
viability at 24 h, 1000 µM [8]: 110%
IC50 [9]: 363 µM
MIC [10]: 46 µg/mL (≈ 209 µM)
MIC [11]: 24 µg/mL (≈ 109 µM)
viability at 24 h, 1000 µM [12]: 85%

CC(C)=CCCC(C)/C=C/CCC(C)=CCO (stereo not drawn) [Compound 25, (6E)-3,8,12-Trimethyltrideca-2,6,11-trien-1-ol]
MIC [1]: 32 µg/mL (≈ 135 µM)
MIC [2]: 44 µg/mL (≈ 186 µM)
IC50 [3]: 667 µM
IC50 [4]: 500 µM
MIC [5]: 34 µg/mL (≈ 144 µM)
IC50 [6]: 454 µM
MIC [7]: 48 µg/mL (≈ 203 µM)
viability at 24 h, 1000 µM [8]: 108%
IC50 [9]: 167 µM
MIC [10]: 50 µg/mL (≈ 212 µM)
MIC [11]: 28 µg/mL (≈ 118 µM)
viability at 24 h, 1000 µM [12]: 82%

CC(=CC=O)CCC=C(C)C(C)CCCC(C)C (stereo not drawn) [Compound 20, 3,7,8,12-Tetramethyltrideca-2,6-dienal]
MIC [1]: 20 µg/mL (≈ 79.9 µM)
MIC [2]: 38 µg/mL (≈ 152 µM)
IC50 [3]: 850 µM
IC50 [4]: 690 µM
MIC [5]: 32 µg/mL (≈ 128 µM)
IC50 [6]: 610 µM
MIC [7]: 38 µg/mL (≈ 152 µM)
viability at 24 h, 1000 µM [8]: 82%
IC50 [9]: 480 µM
MIC [10]: 48 µg/mL (≈ 192 µM)
MIC [11]: 22 µg/mL (≈ 87.9 µM)
viability at 24 h, 1000 µM [12]: 64%

CC(C)=CCCC(C)CC(C)=CCO (stereo not drawn) [Compound 27, 3,5,9-Trimethyldeca-2,8-dien-1-ol]
MIC [1]: 26 µg/mL (≈ 132 µM)
MIC [2]: 34 µg/mL (≈ 173 µM)
IC50 [3]: 687 µM
IC50 [4]: 456 µM
MIC [5]: 18 µg/mL (≈ 91.7 µM)
IC50 [6]: 489 µM
MIC [7]: 18 µg/mL (≈ 91.7 µM)
viability at 24 h, 1000 µM [8]: 106%
IC50 [9]: 143 µM
MIC [10]: 36 µg/mL (≈ 183 µM)
MIC [11]: 28 µg/mL (≈ 143 µM)
viability at 24 h, 1000 µM [12]: 93%

CC(C)=CCCC(C)CCC(C)=CCO (stereo not drawn) [Compound 28, 3,6,10-Trimethylundeca-2,9-dien-1-ol]
MIC [1]: 18 µg/mL (≈ 85.6 µM)
MIC [2]: 18 µg/mL (≈ 85.6 µM)
IC50 [3]: 698 µM
IC50 [4]: 512 µM
MIC [5]: 16 µg/mL (≈ 76.1 µM)
IC50 [6]: 687 µM
MIC [7]: 16 µg/mL (≈ 76.1 µM)
viability at 24 h, 1000 µM [8]: 93%
IC50 [9]: 198 µM
MIC [10]: 28 µg/mL (≈ 133 µM)
MIC [11]: 26 µg/mL (≈ 124 µM)
viability at 24 h, 1000 µM [12]: 101%

CC(=CCO)CCC=C(C)C(C)CCCC(C)C (stereo not drawn) [Compound 26, 3,7,8,12-Tetramethyltrideca-2,6-dien-1-ol]
MIC [1]: 30 µg/mL (≈ 119 µM)
MIC [2]: 38 µg/mL (≈ 151 µM)
IC50 [3]: 620 µM
IC50 [4]: 495 µM
MIC [5]: 36 µg/mL (≈ 143 µM)
IC50 [6]: 531 µM
MIC [7]: 42 µg/mL (≈ 166 µM)
viability at 24 h, 1000 µM [8]: 96%
IC50 [9]: 145 µM
MIC [10]: 48 µg/mL (≈ 190 µM)
MIC [11]: 32 µg/mL (≈ 127 µM)
viability at 24 h, 1000 µM [12]: 76%

CC(C)=CCCC(C)CCC(C)=CC=O (stereo not drawn) [Compound 22, 3,6,10-Trimethylundeca-2,9-dienal]
MIC [1]: 24 µg/mL (≈ 115 µM)
MIC [2]: 36 µg/mL (≈ 173 µM)
IC50 [3]: 880 µM
IC50 [4]: 700 µM
MIC [5]: 46 µg/mL (≈ 221 µM)
IC50 [6]: 740 µM
MIC [7]: 36 µg/mL (≈ 173 µM)
viability at 24 h, 1000 µM [8]: 93%
IC50 [9]: 600 µM
MIC [10]: 44 µg/mL (≈ 211 µM)
MIC [11]: 26 µg/mL (≈ 125 µM)
viability at 24 h, 1000 µM [12]: 76%

From article PMC6272674, “Selected Compounds Structurally Related to Acyclic Sesquiterpenoids and Their Antibacterial and Cytotoxic Activity” (Molecules, 2015)
